Results as given in patent publication US11932870B2, “Compositions and methods for immune cell modulation in adoptive immunotherapies” (Fate Therapeutics, Inc., priority 2016, dated 2024).

How the values were obtained:
[1] = tested on: CD8 T cells transduced with CAR Construct 1; test: Tcm phenotype skewing of CAR-T cells (CD62L, CCR7, CD27 surface expression); format: cell-based, human; conditions: flow cytometry day 8
Method: (§1) Culturing cells in large-scale for phenotypic and exhaustion marker evaluation. Isolated CD8 T cells were activated in bulk on day 0 using anti-CD3/anti-CD28 beads in T cell media supplemented with IL-2. On day 1, cells were transduced with the CAR Construct and cell density was adjusted to 0.5×10^6/ml and 10^6 cells were seeded into 12-well plates in the presence of vehicle, TWS119, or DCC-2036. On day 4, cells were transferred into 6-well plates and 2 ml of T cell media was added to each well. On day 6 another 2 ml of media was added to each well. On day 8, CAR T cells were analyzed on a flow cytometer for surface expression of phenotypic markers (CD62L, CCR7, and CD27) and exhaustion markers (PD-1 and Tim-3).
To determine the effect of compound treatment on skewing towards a central memory phenotype, isolated CD8 T cells were activated in bulk on day 0 using anti-CD3/anti-CD28 beads in T cell media supplemented with IL-2. On day 1, cells were transduced with the CAR Construct 1 shown in FIG. 2 and cell density was adjusted to 0.5×10^6/ml and 10^6 cells were seeded into 12 well plates in the presence of vehicle (DMSO), TWS119 or DCC-2036 at the same concentrations. On day 4, cells were transferred into 6-well plates and 2 ml of media was added to each well. On day 6 another 2 ml of media was added to each well. On day 8, cells were analyzed on a flow cytometer for cell surface expression of CD27.
The expression of CD27 observed with vehicle treatment was defined as an MFI (mean fluorescence intensity) of 1 and the relative MFI of cells treated with compound was calculated.

[2] = tested on: CD8 CAR-T cells; test: Exhaustion marker expression (PD-1, Tim-3) on CD8 CAR-T cells; format: cell-based, human
Method: as §1
To determine the effect of compound treatment of CAR-T cells on exhaustion marker expression, cells from three different donors were prepared and treated as described in the protocol above. PD-1 and Tim-3 expression was determined using flow cytometry. […] Tim-3 expression was reduced 2-fold with TWS119, and 3.7-fold with DCC-2036 treatment (FIG. 6A).

[3] = tested on: CAR-T cells co-cultured with irradiated K562 tumor cells that express CD19; test: In vitro serial killing/re-stimulation assay; format: cell-based, human; conditions: relative to vehicle; FIG. 3C
Source text: An informative clinical parameter that can in some contexts be indicative of likelihood of successful adoptive cell therapy in clinical trials is the ability and extent of expansion of the transferred cells in the patient post-treatment and/or persistence and continued function following initial expansion, e.g., in the context of continued exposure to antigen. The ability of engineered T cells to persist and continue expanding over multiple rounds of antigen stimulation can be indicative of such features and/or likelihood of in vivo function or clinical response. An in vitro serial killing/re-stimulation assay, where the T cells treated by each compound were evaluated for various functions, including expansion and ability to kill tumor cells expressing the target antigen in vitro over multiple rounds of exposure to and withdrawal from antigen, was used as a model system. Such assays were carried out on cells treated with or without compounds, to assess the impact of individual compounds on cell function after repeated encounter with antigen, and cell expansion or persistence in such contexts.
CD8 T cells were activated, transduced, and expanded in the presence of DMSO, TWS119, or DCC-2036. At the end of the expansion, the CAR-T cells were cryopreserved. The serial re-stimulation assay was performed by thawing the CAR-T cells and co-culturing with irradiated K562 tumor cells that express CD19, the antigen recognized by the CAR. Prior to starting each round of killing, cell numbers were adjusted so that CAR-T cell numbers were substantially the same from the cultures generated with DMSO, TWS119, and DCC-2036 treatment respectively. An equal number of irradiated CD19-expressing K562 target cells were added to the different CAR-T cultures.

[4] = tested on: Nalm-6-luc tumor cells; test: In vivo tumor clearance by compound-treated CD19 CAR-T cells; conditions: NSG mice with Nalm-6-luc; 2.0×10^5 cryopreserved compound-treated CAR-T cells per animal (1:1 CD4:CD8); imaging; FIGS. 7 and 8
Method: NSG mice were injected with Nalm-6-luc, a CD19+ human tumor line engineered to express firefly luciferase. CAR-T cells were generated from CD4+ and CD8+ T cells that were separately activated and expanded in vitro. The cells were transduced with the CAR-2 construct (FIG. 2) one day after activation and then replated into 24-well GREX plates with or without the compounds. Half the media was replaced every two days thereafter until harvest one week post-activation. Cells were cryopreserved and then thawed for use. NSG mice were infused with tumor cells followed […] by CAR-T transfer via retroorbital injection. Four days after IV. injection with Nalm-6-luc cells, mice were treated with 2.0×10^5 CAR-T cells per animal (1:1 CD4:CD8). The mice were imaged periodically to determine tumor burden.

With `Nc1cccc(-c2cc3c(Oc4cccc(O)c4)ncnc3[nH]2)c1` [TWS119] the “increase in the frequency of CAR-T cells expressing both CD62L and CCR7” value ([1]; relative to vehicle (DMSO), FIG. 4A) was 1.7 fold, the “increase in the expression of the differentiation marker CD27 (relative MFI)” value ([1]; relative to vehicle (MFI defined as 1), FIG. 4B) was “did not have an effect” and the “expression of T cell exhaustion marker Tim-3” value ([2]; CD8 T cells at one week post activation, relative to DMSO, FIG. 6A) was “reduced expression”. For the same compound, the “expression of T cell exhaustion marker PD-1” value ([2]; CD8 T cells at one week post activation, relative to DMSO, FIG. 6B) was “reduced expression”, the “reduction of Tim-3 expression” value ([2]; relative to vehicle, three donors, FIG. 6A) was 2 fold and the “decrease in PD-1 surface expression” value ([2]; relative to vehicle, three donors, FIG. 6B) was 3.3 fold. For the same compound, the “cell number expansion of CAR-T cells in rounds 3 and 4 of the serial re-stimulation assay” value [3] was “modest increase in expansion relative to vehicle” and the “tumor burden / tumor control” value [4] was “minimal tumor control”.
